Experimental data reported in patent EP2292241A1, “A SCUTELLARIN DERIVATIVE, THE PREPARING PROCESS, THE PHARMACEUTICAL COMPOSITION AND THE USE THEREOF” (Kunming Pharmaceutical Corp., priority 2008, dated 2009).

Assays:
[1] = system: rats with myocardial ischemia caused by coronary artery ligation; test: myocardial ischemia caused by coronary artery ligation in rats; assay type: in vivo, SD rat; details: for rate of platelet aggregation: ADP-induced, turbidimetry; for range of myocardial infarction: TTC stain, infarcted part as % of ventricle weight; for range of myocardial infarction rate of decrease: compared with the modeling group; for indicators of coagulation APTT / indicators of coagulation FIB / indicators of coagulation PT / indicators of coagulation TT: plasma 24h after ligation
Experimental: Male SD rats of 330~385g were divided at random into sham group, model group, breviscapine tablet of 40mg/kg group, A1 20mg/kg group and A1 40mg/kg group. Animals of each group were gavage once daily for consecutive 5 days in predetermined dosage, for blank group and model group, the rats were given same volume of 0.5% CNC-Na in 10ml/kg body weight. At 30 minute after the last administration, the animals were anesthetized with 12% chloral hydrate in 350 mg/kg via intraperitoneal injection, then a thoracotomy was performed to render the heart exposed. The left anterior descending coronary artery was found between pulmonary artery cone and left ventricular and was ligated at 2-3mm to the root. Reposited the heart and closed the thoracic cavity. For the sham group, the suture was merely placed but not ligated.
II lead limb ECGs before ligation and at 5min, 30 min, 1h, 2h, 4h and 24h after ligation were recorded, respectively. The change of S-T segment (J point) was measured. After 24h ECG was recorded, blood was collected in duplicate via carotid artery intubation. For one sample, serum was separated and the activity of AST, LDH and CK-MB was determined according to the method of the kit; for another sample, it was treated with 3.8% sodium citrate in 1:9 for the purpose of anticoagulation, centrifuged at 1000rpm for 5 minutes to prepare platelet rich plasma (PRP), and centrifuged at 3500rpm for 10 minutes to prepare platelet poor plasma (PPP). The rate of platelet aggregation induced by ADP-2Na was determined according to turbidimetry, the final concentration of ADP was […]; TT, PT, APTT and FIB was determined according to the method of the kit, respectively. The heart was removed quickly after blood taking, and placed into ice cold saline solution to pump out deposit blood in thoracic cavity. The atria and adipose tissue were removed, and water was adsorbed to dryness. The ventricle was weighed, cut into 5 pieces along the coronal, then incubated and stained for 10 minutes in 1% TTC solution at 37°C in darkness. […] The infracted part was cut and weighed. The percentage of infracted part accounting for the total weight of ventricle was calculated, which was the range of myocardial infarction.

[2] = system: rats with MCAO induced focal cerebral ischemia; test: focal cerebral ischemia induced by MCAO (middle cerebral artery occlusion) in rats; assay type: in vivo, SD rat; details: for range of cerebral infarction: TTC stain, % of bilateral cerebral hemispheres weight; for behavior score: full score 12, higher = more severe; for rate of platelet aggregation: ADP-induced, turbidimetry; for range of cerebral infarction rate of decrease: compared with the modeling group; for indicators of coagulation APTT / indicators of coagulation FIB / indicators of coagulation PT / indicators of coagulation TT: plasma 24h after modeling
Experimental: Male SD rats, weighing 240~290g, grouping and dosages were as above. Additionally, a positive control group, i.e., nimodipine 50mg/kg group was set up. Animals of each group were gavage once daily for consecutive 5 days in predetermined dosage. At 30 minute after the last administration, the animals were anesthetized with 12% chloral hydrate in 350 mg/kg via intraperitoneal injection. The animals were kept left lateral position and the skin was cut along the middle point between right ear and eye line. Temporalis was separated and cheekbone was sheared. A holl was drilled with a dental drill in front of zygomatic root and MCA was exposed. The MCA was hooked with a needle between the vein and olfactory tract in the brain, then was broke, after bleeding was stopped with a cotton ball, muscle and skin layer was sutured in layer. For the sham group, except for no breaking of MCA, other steps were same.
The animals were scored on neurological functions at 6 hour and 24 hour after modeling, according to behavior such as movement. Such score was used as an indicator of brain dysfunction. […] The standards of grading were as follows;
The full score of the above standards is 12. The higher the score is, the more severe the behavior disorder is.
24 hour after modeling and after neurological scoring, blood was taken via carotid artery intubation in duplicate. For one sample, serum was separated and the activity of AST and LDH was determined according to the method of the kit; for another sample, it was treated with 3.8% sodium citrate in 1:9 for the purpose of anticoagulation, centrifuged at 1000rpm for 5 minutes to prepare platelet rich plasma (PRP), and centrifuged at 3500rpm for 10 minutes to prepare platelet poor plasma (PPP). The rate of platelet aggregation induced by ADP-2Na was determined according to turbidimetry, the final concentration of ADP was […]; TT, PT, APTT and FIB was determined according to the method of the kit, respectively. The brain was removed quickly by decollation after blood taking, and then placed into ice cold saline solution to remove olfactory bulb, cerebellum and brainstem. The brain was weighed after water being absorbed to dryness, and then cut into 5 pieces along the coronal, placed into a 5ml solution containing 4% TTC and 0.1ml K2HPO4 (1mol/L) and incubated for 30 minutes at 37°C and in darkness. During the course every 7 to 8 minutes a turning was made. […] The infracted part was cut and weighed. The percentage of infracted tissue accounting for the total weight of bilateral cerebral hemispheres was calculated by weight area method, which was the range of cerebral infarction.

[3] = toxic or adverse effect at high dosage in animal experiments; assay type: in vivo
[4] = comparative study on solubilities (China Pharmacopeia 2005 terms); assay type: physicochemical; details: terms per China Pharmacopeia 2005
Source text: Table 7 Comparison on solubilities of compound A1 of the present invention and scutellarin

[5] = 20mg/kg, serum 24h after ligation
[6] = 40mg/kg, serum 24h after ligation

For `COc1ccc(-c2cc(=O)c3c(OC)c(OC)c(OC4O[C@H](C(=O)O)[C@@H](O)[C@H](O)[C@H]4O)cc3o2)cc1` (stereo partly shown) [A1, 4',5,6-trimethoxylscutellarin], the “change of S-T segment after ligation” value ([1]; 20mg/kg gavage once daily 5 days, 5min after ligation) was 0.17±0.11 mv, the “change of S-T segment after ligation” value ([1]; 20mg/kg gavage once daily 5 days, 30min after ligation) was 0.12±0.09 mv and the “change of S-T segment after ligation” value ([1]; 20mg/kg gavage once daily 5 days, 1h after ligation) was 0.11±0.08 mv. For the same compound, the “change of S-T segment after ligation” value ([1]; 20mg/kg gavage once daily 5 days, 2h after ligation) was 0.11±0.07 mv, the “change of S-T segment after ligation” value ([1]; 20mg/kg gavage once daily 5 days, 4h after ligation) was 0.11±0.08 mv and the “change of S-T segment after ligation” value ([1]; 20mg/kg gavage once daily 5 days, 24h after ligation) was 0.07±0.08 mv. For the same compound, the “rate of platelet aggregation” value ([1]; 20mg/kg, 24h after ligation) was 51.20±7.41 %, the “range of myocardial infarction” value ([1]; 20mg/kg) was 3.50±2.68 % and the “range of myocardial infarction rate of decrease” value ([1]; 20mg/kg) was 45.65%. For the same compound, the “indicators of coagulation APTT” value ([1]; 20mg/kg) was 78.17 ± 28.14 s, the “indicators of coagulation FIB” value ([1]; 20mg/kg) was 4.77 ± 1.11 g/L and the “indicators of coagulation PT” value ([1]; 20mg/kg) was 25.90 ± 3.51 s. For the same compound, the “indicators of coagulation TT” value ([1]; 20mg/kg) was 92.41 ± 42.37 s, the “myocardial enzymology AST” value [1, 5] was 0.61±0.26 ku/L and the “myocardial enzymology CK-MB” value [1, 5] was 0.71±0.45 ku/L. The “change of S-T segment after ligation” value ([1]; 40mg/kg gavage once daily 5 days, 5min after ligation) was 0.14±0.12 mv, the “change of S-T segment after ligation” value ([1]; 40mg/kg gavage once daily 5 days, 30min after ligation) was 0.06±0.06 mv and the “change of S-T segment after ligation” value ([1]; 40mg/kg gavage once daily 5 days, 1h after ligation) was 0.05±0.04 mv. For the same compound, the “change of S-T segment after ligation” value ([1]; 40mg/kg gavage once daily 5 days, 2h after ligation) was 0.05±0.04 mv, the “change of S-T segment after ligation” value ([1]; 40mg/kg gavage once daily 5 days, 4h after ligation) was 0.06±0.05 mv and the “change of S-T segment after ligation” value ([1]; 40mg/kg gavage once daily 5 days, 24h after ligation) was 0.02±0.03 mv. For the same compound, the “rate of platelet aggregation” value ([1]; 40mg/kg, 24h after ligation) was 48.22±5.55 %, the “range of myocardial infarction” value ([1]; 40mg/kg) was 2.52±2.16 % and the “range of myocardial infarction rate of decrease” value ([1]; 40mg/kg) was 60.87%. The “indicators of coagulation APTT” value ([1]; 40mg/kg) was 75.96 ± 35.87 s, the “indicators of coagulation FIB” value ([1]; 40mg/kg) was 3.95 ± 0.84 g/L and the “indicators of coagulation PT” value ([1]; 40mg/kg) was 25.75 ± 5.26 s. For the same compound, the “indicators of coagulation TT” value ([1]; 40mg/kg) was 93.04 ± 35.64 s, the “myocardial enzymology AST” value [1, 6] was 0.61±0.20 ku/L and the “myocardial enzymology CK-MB” value [1, 6] was 0.80±0.68 ku/L. The “myocardial enzymology LDH” value [1, 6] was 0.61±0.24 ku/L, the “body weight 6h after surgery” value ([2]; 20mg/kg) was 258.3 ± 11.9 g and the “body weight 24h after surgery” value ([2]; 20mg/kg) was 250.0 ± 15.1 g. For the same compound, the “body weight prior to surgery” value ([2]; 20mg/kg) was 268.8 ± 12.4 g, the “range of cerebral infarction” value ([2]; 20mg/kg gavage once daily 5 days) was 2.36±1.81 % and the behavior score ([2]; 20mg/kg, 6h after modeling) was 6.42±1.62. The “serum enzymes AST” value ([2]; 20mg/kg, 24h after modeling) was 171.2±71.6 u/L, the “serum enzymes LDH” value ([2]; 20mg/kg, 24h after modeling) was 571.1±287.5 u/L and the behavior score ([2]; 20mg/kg, 24h after modeling) was 4.92±1.31. For the same compound, the “rate of platelet aggregation” value ([2]; 20mg/kg, 24h after modeling) was 50.52±4.07 %, the “range of cerebral infarction rate of decrease” value ([2]; 20mg/kg) was 59.10% and the “indicators of coagulation APTT” value ([2]; 20mg/kg) was 62.48 ± 29.08 s. The “indicators of coagulation FIB” value ([2]; 20mg/kg) was 3.38 ± 1.07 g/L, the “indicators of coagulation PT” value ([2]; 20mg/kg) was 25.56 ± 5.30 s and the “indicators of coagulation TT” value ([2]; 20mg/kg) was 95.55 ± 24.80 s. The “body weight 6h after surgery” value ([2]; 40mg/kg) was 253.8 ± 12.1 g, the “body weight 24h after surgery” value ([2]; 40mg/kg) was 244.2 ± 12.2 g and the “body weight prior to surgery” value ([2]; 40mg/kg) was 265.8 ± 12.4 g. For the same compound, the “range of cerebral infarction” value ([2]; 40mg/kg gavage once daily 5 days) was 2.04±1.43 %, the behavior score ([2]; 40mg/kg, 6h after modeling) was 5.75±1.42 and the “serum enzymes AST” value ([2]; 40mg/kg, 24h after modeling) was 152.9±33.0 u/L. The “serum enzymes LDH” value ([2]; 40mg/kg, 24h after modeling) was 472.0±231.9 u/L, the behavior score ([2]; 40mg/kg, 24h after modeling) was 4.25±1.60 and the “rate of platelet aggregation” value ([2]; 40mg/kg, 24h after modeling) was 52.38±5.24 %. The “range of cerebral infarction rate of decrease” value ([2]; 40mg/kg) was 64.64%, the “indicators of coagulation APTT” value ([2]; 40mg/kg) was 75.15 ± 27.41 s and the “indicators of coagulation FIB” value ([2]; 40mg/kg) was 3.59 ± 0.76 g/L. For the same compound, the “indicators of coagulation PT” value ([2]; 40mg/kg) was 23.43 ± 8.66 s, the “indicators of coagulation TT” value ([2]; 40mg/kg) was 62.04 ± 40.80 s and the “toxic or adverse effect” value [3] was “No toxic or adverse effect was found”.

With `COCCOC(=O)C1=C(C)NC(C)=C(C(=O)OC(C)C)C1c1cccc([N+](=O)[O-])c1` (stereo not shown) [nimodipine, reference compound] the “body weight 6h after surgery” value ([2]; 50mg/kg) was 257.1 ± 11.4 g, the “body weight 24h after surgery” value ([2]; 50mg/kg) was 249.6 ± 10.5 g and the “body weight prior to surgery” value ([2]; 50mg/kg) was 265.8 ± 12.9 g. For the same compound, the “range of cerebral infarction” value ([2]; 50mg/kg gavage once daily 5 days) was 2.27±2.56 %, the behavior score ([2]; 50mg/kg, 6h after modeling) was 6.50±1.68 and the “serum enzymes AST” value ([2]; 50mg/kg, 24h after modeling) was 198.6±118.2 u/L. The “serum enzymes LDH” value ([2]; 50mg/kg, 24h after modeling) was 536.7±262.8 u/L, the behavior score ([2]; 50mg/kg, 24h after modeling) was 4.83±1.40 and the “rate of platelet aggregation” value ([2]; 50mg/kg, 24h after modeling) was 54.15±7.76%. The “range of cerebral infarction rate of decrease” value ([2]; 50mg/kg) was 60.66%, the “indicators of coagulation APTT” value ([2]; 50mg/kg) was 61.02 ± 44.79 s and the “indicators of coagulation FIB” value ([2]; 50mg/kg) was 3.52 ± 1.14 g/L. The “indicators of coagulation PT” value ([2]; 50mg/kg) was 23.38 ± 8.23 s and the “indicators of coagulation TT” value ([2]; 50mg/kg) was 88.55 ± 32.24 s.

In the case of `O=C(O)[C@H]1O[C@@H](Oc2cc3oc(-c4ccc(O)cc4)cc(=O)c3c(O)c2O)[C@H](O)[C@@H](O)[C@@H]1O` [scutellarin], the solubility ([4]; 0.01N NaOH) is reported as “soluble”, the solubility ([4]; 95%EtOH) is reported as “slightly soluble” and the solubility ([4]; H2O) is reported as “very slightly soluble”. The solubility ([4]; MeOH) was “slightly soluble” and the solubility ([4]; n-BuOH) was “slightly soluble”.
